According to patent US20240415828A1, “TLR7 AGONIST AND COMBINATIONS FOR CANCER TREATMENT” (BIONTECH SE, priority 2021, published 2024):

Legend:
Human whole blood = experiment: Cytokine release in human whole blood treated in vitro (CBA); format: cell-based
Protocol: FIG. 7. Release of certain cytokines upon treatment of whole blood from human donors with BNT411 at various concentrations. Whole blood drawn from healthy human volunteers was treated in vitro with BNT411 to investigate the induction of the following cytokines/chemokines: IFNα, IP-10, IL-6, and TNFα. BNT411 concentrations ranging from 0.1 nM (1×) to 7.5 μM (75000×). The fold increase to baseline is shown for each cytokine and BNT411 concentration tested.
(§1) After performing a serial dilution of the test compounds (such as BNT411), 5 μL of each sample is transferred/pipetted to single wells of a 96-well-plate. As negative control, plasma which has been prepared from whole blood of each donor is used. Subsequently, 245 μL of RPMI-medium is added to each well, leading to a 1:50 dilution of each sample, named spiking solutions. The heparinized whole blood is pipetted to separate 96-well-plate. After seeding whole blood, the prepared spiking solutions are added: 190 μL of whole blood is seeded in each well and 10 μL of spiking solutions is added to get a final volume of 200 μL per well and additional 1:20 dilution of all samples. Finally, the plates are incubated at 37° C. and 5% CO2. After 24 h incubation the plates are centrifuged at 500×g for 5 min. The plasma of all samples is harvested, transferred to a new 96-well-plate and frozen at −15° C. to −25° C. until performing the CBA, but at least 3 h.
The CBA is performed with the frozen/thawed plasma samples according to the manufacturer's instructions for ProCarta multiplex kits. For evaluation of cytokine concentrations, assay duplicates of all samples are measured by using the luminex system. After checking standard curves with the instrument control system (Bio-Plex Manager 4.1.1) the raw data are transferred to excel. Graphical analysis is performed with GraphPad Prism 6.
Human whole blood was obtained from healthy donors and treated in vitro with BNT411 (concentration range: 0.1 nM to […]). 24 h after stimulation secretion of several cytokines, including IFNα, IP-10, IL-6, and TNFα, was analyzed by a multiplexed CBA.

Human PBMCs = experiment: In vitro human PBMC stimulation assay (IFNα, multiplexed CBA); format: cell-based; conditions: 24 h after stimulation, n=5
Protocol: FIG. 1. In vitro human PBMC stimulation assay. […] Data shown as mean±standard deviation (SD), n=5.
as §1
The CBA is performed with the frozen/thawed plasma samples according to the manufacturer's instructions for ProCarta multiplex kits. For evaluation of cytokine concentrations, assay duplicates of all samples are measured by using the luminex system. […]

BALB/c mice = experiment: In vivo cytokine release in BALB/c mice (IFNa ELISA); parameters: species or system mouse; conditions: 3 mg/kg retro-orbital vs 5, 10, 15 mg/kg; blood 1 h after application
Protocol: FIG. 2. In vivo cytokine release in BALB/c mice upon administration of BNT411. Female BALB/c mice were retro-orbitally administered with doses of 3, 5, 10, and 15 mg/kg BNT411. Blood samples were drawn 1 h after compound application and analyzed with mouse IFNa ELISA.
Serum levels of IFNα were measured by sandwich ELISA (Pbl Assay Systems) according to manufacturer's instructions.
Female BALB/c mice were retro-orbitally administered with doses of 3, 5, 10, and 15 mg/kg BNT411. Blood samples were drawn 1 h after compound application and analyzed with mouse IFNa ELISA.

`COCCc1nc2c(N)nc3ccccc3c2n1CCCCN(C(C)=O)C1CCOCC1` [BNT411] was tested, and the “concentrations required for inducing secretion of pyrogenic proinflammatory cytokines (e.g., TNFα) relative to IFNα” value (Human whole blood; FIG. 7) was “up to two orders of magnitude higher”, the “IFNα secretion induced at fold lower concentrations than needed for induction of IL-6, TNFα, and IL-10” value (Human whole blood; human whole blood, 24 h) was 5- to 25 fold and the “concentration at which IL-6, TNFa and IL-10 start to be induced” value (Human whole blood; human whole blood, 24 h) was “about 0.06 μM”. The “concentration at which significant IFNα release was induced” value (Human whole blood; human whole blood, 24 h) was 0.012 µM, the “concentration for maximal induction of IFNα, fold lower than for maximal induction of IL-6, TNFα, and IL-10” value (Human whole blood; human whole blood, 24 h) was 25- to 100 fold and the “amount of IFNα induced compared to imiquimod (R837), resiquimod (R848) and 852A” value (Human PBMCs) was “significantly higher amount”. For the same compound, the “concentrations inducing IFNα, fold lower compared to imiquimod (R837), resiquimod (R848) and 852A” value (Human PBMCs) was 10 to 30 fold and the IFNa secretion (BALB/c mice) was “stronger IFNa secretion as compared to higher BNT411 doses”.
